Measured values from paper PMC11289455 (Scientific Reports, 2024).
Where two headings read alike, the source gives them in different places.

Experiments:
[1] = target: T1, μ (MOP) (mu opioid receptor) (Homo sapiens, UniProt P35372); experiment: SafetyScreen44: μ (MOP); assay type: binding
T1 construct: purchased Eurofins Cerep SafetyScreen44

[2] = target: T2, β1 (beta-1 adrenergic receptor) (Homo sapiens, UniProt P08588); experiment: SafetyScreen44: β1; assay type: binding
T2 construct: purchased Eurofins Cerep SafetyScreen44

[3] = target: T3, PDE4D2 (cAMP-specific 3’,5’-cyclic phosphodiesterase 4D2) (Homo sapiens, UniProt Q08499); experiment: SafetyScreen44: PDE4D2; assay type: biochemical
T3 construct: purchased Eurofins Cerep SafetyScreen44

[4] = target: T4, M2 (muscarinic acetylcholine receptor M2) (Homo sapiens, UniProt P08172); experiment: SafetyScreen44: M2; assay type: binding
T4 construct: purchased Eurofins Cerep SafetyScreen44
T4 sequence (P08172 1-466): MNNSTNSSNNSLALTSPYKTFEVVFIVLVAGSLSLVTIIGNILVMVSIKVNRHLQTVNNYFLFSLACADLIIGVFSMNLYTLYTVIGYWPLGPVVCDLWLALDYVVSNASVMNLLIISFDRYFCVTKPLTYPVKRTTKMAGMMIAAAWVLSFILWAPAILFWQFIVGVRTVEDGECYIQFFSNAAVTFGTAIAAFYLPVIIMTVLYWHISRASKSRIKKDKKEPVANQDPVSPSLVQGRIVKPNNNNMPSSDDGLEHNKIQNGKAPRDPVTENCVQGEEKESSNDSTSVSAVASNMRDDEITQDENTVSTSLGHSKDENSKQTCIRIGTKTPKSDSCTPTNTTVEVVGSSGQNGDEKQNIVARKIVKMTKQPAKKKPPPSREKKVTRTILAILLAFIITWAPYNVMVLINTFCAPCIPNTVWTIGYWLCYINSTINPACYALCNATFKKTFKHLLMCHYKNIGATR

[5] = target: T5, δ (DOP) (delta opioid receptor) (Homo sapiens, UniProt P41143); experiment: SafetyScreen44: δ (DOP); assay type: binding
T5 construct: purchased Eurofins Cerep SafetyScreen44

AR (androgen receptor) = target: T6, AR (androgen receptor) (Homo sapiens, UniProt P10275, T878A); experiment: SafetyScreen44: AR; assay type: binding
T6 construct: purchased Eurofins Cerep SafetyScreen44
T6 sequence (P10275 1-920 T878A): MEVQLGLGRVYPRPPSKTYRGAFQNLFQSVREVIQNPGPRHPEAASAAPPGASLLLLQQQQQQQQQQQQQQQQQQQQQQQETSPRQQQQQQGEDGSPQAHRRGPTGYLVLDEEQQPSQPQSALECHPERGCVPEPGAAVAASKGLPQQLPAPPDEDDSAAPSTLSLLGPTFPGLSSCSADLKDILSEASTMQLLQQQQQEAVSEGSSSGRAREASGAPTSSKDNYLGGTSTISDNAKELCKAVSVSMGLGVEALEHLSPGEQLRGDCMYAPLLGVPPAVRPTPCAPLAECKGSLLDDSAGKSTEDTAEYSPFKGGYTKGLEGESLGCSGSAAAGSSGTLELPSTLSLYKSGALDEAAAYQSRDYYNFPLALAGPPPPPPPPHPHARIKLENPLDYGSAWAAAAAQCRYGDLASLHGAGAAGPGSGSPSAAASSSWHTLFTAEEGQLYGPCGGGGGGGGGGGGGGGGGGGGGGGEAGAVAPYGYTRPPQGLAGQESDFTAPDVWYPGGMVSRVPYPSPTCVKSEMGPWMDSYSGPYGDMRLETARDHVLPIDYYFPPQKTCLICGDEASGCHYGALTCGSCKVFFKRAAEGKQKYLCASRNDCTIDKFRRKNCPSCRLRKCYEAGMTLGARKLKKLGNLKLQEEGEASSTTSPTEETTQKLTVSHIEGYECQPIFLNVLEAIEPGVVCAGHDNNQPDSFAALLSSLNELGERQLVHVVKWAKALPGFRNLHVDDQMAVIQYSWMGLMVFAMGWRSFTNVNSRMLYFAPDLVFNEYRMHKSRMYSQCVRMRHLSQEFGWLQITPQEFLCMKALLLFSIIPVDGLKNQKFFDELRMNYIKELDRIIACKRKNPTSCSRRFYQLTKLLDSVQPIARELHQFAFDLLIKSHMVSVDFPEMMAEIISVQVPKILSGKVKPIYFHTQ

[6] = target: T7, 5-HT2B (serotonin 2B receptor) (Homo sapiens, UniProt P41595); experiment: SafetyScreen44: 5-HT2B; assay type: binding
T7 construct: purchased Eurofins Cerep SafetyScreen44

healthy participants = experiment: First-in-human study, safety and tolerability; assay type: in vivo
Source text: The purpose of the first-in-human, single-center, randomized, double-blind, placebo-controlled study was to determine the safety, tolerability, pharmacokinetics, and pharmacodynamics of JNJ-77242113 in healthy participants. […] AEs were coded using the Medical Dictionary for Regulatory Activities (Version 23.1).

[7] = target: T8, M3 (muscarinic acetylcholine receptor M3) (Homo sapiens, UniProt P20309); experiment: SafetyScreen44: M3; assay type: binding
T8 construct: purchased Eurofins Cerep SafetyScreen44

[8] = target: T9, Lck kinase (lymphocyte-specific protein tyrosine kinase) (Homo sapiens, UniProt P06239); experiment: SafetyScreen44: Lck kinase; assay type: biochemical
T9 construct: purchased Eurofins Cerep SafetyScreen44
T9 sequence (P06239 whole entry): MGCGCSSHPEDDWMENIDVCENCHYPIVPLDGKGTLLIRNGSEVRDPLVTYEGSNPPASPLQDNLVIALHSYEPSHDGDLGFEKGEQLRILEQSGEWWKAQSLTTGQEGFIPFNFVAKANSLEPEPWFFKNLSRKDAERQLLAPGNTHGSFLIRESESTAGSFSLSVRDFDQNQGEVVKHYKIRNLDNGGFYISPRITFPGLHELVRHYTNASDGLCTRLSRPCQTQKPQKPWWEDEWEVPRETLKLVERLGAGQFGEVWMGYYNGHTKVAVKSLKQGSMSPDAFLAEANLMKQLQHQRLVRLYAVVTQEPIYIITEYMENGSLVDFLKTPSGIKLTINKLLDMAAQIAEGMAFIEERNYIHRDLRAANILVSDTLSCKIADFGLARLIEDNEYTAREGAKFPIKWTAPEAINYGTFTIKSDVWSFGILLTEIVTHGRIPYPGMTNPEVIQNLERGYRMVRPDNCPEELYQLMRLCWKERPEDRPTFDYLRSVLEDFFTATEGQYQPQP

T8 sequence (P20309 whole entry): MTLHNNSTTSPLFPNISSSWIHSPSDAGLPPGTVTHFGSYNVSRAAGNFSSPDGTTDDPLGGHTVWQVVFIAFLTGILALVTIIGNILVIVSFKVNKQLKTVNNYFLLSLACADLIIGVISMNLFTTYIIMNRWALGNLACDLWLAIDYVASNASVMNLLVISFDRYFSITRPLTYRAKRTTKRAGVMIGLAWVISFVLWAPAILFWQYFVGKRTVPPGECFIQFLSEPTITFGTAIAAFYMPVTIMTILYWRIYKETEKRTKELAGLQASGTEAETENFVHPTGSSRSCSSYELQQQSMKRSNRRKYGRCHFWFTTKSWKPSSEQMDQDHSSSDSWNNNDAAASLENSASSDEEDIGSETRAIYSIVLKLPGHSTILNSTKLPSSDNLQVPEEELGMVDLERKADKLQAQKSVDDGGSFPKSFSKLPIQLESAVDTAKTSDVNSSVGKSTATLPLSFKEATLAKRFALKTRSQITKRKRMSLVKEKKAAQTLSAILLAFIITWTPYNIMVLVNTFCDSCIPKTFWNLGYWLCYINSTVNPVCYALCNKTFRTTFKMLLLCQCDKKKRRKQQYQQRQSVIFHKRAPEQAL
T7 sequence (P41595 whole entry): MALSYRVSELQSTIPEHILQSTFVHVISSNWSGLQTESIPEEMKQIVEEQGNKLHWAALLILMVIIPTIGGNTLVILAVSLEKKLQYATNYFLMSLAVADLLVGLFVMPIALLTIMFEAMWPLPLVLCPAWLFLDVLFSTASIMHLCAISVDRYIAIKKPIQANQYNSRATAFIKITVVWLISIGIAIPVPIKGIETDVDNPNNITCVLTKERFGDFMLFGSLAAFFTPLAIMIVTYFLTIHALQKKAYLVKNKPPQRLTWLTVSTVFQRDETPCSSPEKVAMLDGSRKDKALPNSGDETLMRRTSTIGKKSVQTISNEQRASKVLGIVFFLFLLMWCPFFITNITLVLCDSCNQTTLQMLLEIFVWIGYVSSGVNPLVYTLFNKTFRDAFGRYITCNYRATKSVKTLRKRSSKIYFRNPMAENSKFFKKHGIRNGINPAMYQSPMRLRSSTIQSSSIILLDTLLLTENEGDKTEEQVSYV
T3 sequence (Q08499 303-809 limits assumed): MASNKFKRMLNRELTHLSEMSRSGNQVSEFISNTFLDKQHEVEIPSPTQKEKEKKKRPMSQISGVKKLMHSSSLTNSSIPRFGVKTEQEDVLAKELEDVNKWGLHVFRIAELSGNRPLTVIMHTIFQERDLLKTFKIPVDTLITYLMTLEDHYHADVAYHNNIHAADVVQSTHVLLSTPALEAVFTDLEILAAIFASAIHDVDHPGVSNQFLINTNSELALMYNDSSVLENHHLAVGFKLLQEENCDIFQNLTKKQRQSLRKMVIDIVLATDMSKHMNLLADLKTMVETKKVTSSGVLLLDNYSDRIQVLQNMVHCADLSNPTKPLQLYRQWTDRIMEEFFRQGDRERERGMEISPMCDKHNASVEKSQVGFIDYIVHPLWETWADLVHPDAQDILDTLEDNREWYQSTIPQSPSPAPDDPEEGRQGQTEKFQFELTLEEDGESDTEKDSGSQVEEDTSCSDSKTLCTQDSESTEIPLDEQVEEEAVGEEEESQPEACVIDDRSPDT
T1 sequence (P35372 whole entry): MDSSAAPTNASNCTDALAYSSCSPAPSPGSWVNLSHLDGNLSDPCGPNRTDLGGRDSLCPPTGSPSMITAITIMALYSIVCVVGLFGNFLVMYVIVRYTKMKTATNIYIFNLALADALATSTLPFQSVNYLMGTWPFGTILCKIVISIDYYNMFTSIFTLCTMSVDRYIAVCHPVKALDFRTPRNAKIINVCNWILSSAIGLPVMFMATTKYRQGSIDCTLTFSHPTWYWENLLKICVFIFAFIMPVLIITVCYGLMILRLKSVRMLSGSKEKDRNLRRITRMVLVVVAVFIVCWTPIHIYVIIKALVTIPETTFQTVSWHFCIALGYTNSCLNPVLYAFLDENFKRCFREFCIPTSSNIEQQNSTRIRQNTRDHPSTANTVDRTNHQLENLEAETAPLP
T5 sequence (P41143 whole entry): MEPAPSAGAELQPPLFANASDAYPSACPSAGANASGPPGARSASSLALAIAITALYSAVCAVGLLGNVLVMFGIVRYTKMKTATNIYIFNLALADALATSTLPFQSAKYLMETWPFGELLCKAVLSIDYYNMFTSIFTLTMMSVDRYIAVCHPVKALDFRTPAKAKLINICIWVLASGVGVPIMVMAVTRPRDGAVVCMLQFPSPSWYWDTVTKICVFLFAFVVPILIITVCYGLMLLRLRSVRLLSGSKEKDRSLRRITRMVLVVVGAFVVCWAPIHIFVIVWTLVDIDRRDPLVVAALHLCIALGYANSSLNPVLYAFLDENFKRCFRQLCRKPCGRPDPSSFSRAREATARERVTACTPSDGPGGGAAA
T2 sequence (P08588 whole entry): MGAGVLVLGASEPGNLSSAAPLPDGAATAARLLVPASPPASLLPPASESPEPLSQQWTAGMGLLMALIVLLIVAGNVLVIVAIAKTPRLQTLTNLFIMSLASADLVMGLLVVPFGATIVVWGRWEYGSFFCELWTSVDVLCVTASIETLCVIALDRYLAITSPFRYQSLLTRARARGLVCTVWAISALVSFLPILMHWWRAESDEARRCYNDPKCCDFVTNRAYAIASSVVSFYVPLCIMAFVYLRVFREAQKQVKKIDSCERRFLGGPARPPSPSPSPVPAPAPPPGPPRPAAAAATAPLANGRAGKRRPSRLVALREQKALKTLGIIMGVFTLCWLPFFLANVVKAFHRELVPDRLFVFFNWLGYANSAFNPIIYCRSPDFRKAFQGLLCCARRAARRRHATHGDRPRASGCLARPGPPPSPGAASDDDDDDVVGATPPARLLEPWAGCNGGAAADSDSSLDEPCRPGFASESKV

CC(=O)NCCCC[C@@H]1NC(=O)[C@H](Cc2c[nH]c3c(C)cccc23)NC(=O)[C@H]([C@@H](C)O)NC(=O)[C@H](CC(N)=O)NC(=O)[C@@H](NC(C)=O)C(C)(C)SSC(C)(C)[C@@H](C(=O)N[C@@H](Cc2ccc(OCCN)cc2)C(=O)N[C@@H](Cc2ccc3ccccc3c2)C(=O)NC2(C(=O)N[C@@H](CCC(=O)O)C(=O)N[C@@H](CC(N)=O)C(=O)N[C@@H](Cc3cccnc3)C(=O)N(C)CC(N)=O)CCOCC2)NC1=O [JNJ-77242113, S^3,1,S^3,6-cyclo[N-acetyl-3-sulfanyl-L-valyl-L-asparaginyl-L-threonyl-7-methyl-L-tryptophyl-N^6-acetyl-L-lysyl-3-sulfanyl-L-valyl-O-(2-aminoethyl)-L-tyrosyl-3-(naphthalen-2-yl)-L-alanyl-4-aminooxan-4-carbonyl-L-α-glutamyl-L-asparaginyl-3-(pyridin-3-yl)-L-alanyl-N^2-methylglycinamide]]
inhibition at 10 µM ([1]; 1st run, read-out: Percent inhibition of control ligand binding, μ (MOP), 1st run): 5.1% | inhibition at 10 µM ([1]; 2nd run, read-out: Percent inhibition of control ligand binding, μ (MOP), 2nd run): -4.8% | inhibition at 10 µM ([1]; mean of 2 runs, read-out: Percent inhibition of control ligand binding, μ (MOP), Mean): 0.1% | inhibition at 10 µM ([2]; 1st run, read-out: Percent inhibition of control ligand binding, β1, 1st run): -5.1% | inhibition at 10 µM ([2]; 2nd run, read-out: Percent inhibition of control ligand binding, β1, 2nd run): 7.7% | inhibition at 10 µM ([2]; mean of 2 runs, read-out: Percent inhibition of control ligand binding, β1, Mean): 1.3% | inhibition at 10 µM ([3]; 1st run, read-out: Percent inhibition of control ligand binding, PDE4D2, 1st run): -22.6% | inhibition at 10 µM ([3]; 2nd run, read-out: Percent inhibition of control ligand binding, PDE4D2, 2nd run): -11.7% | inhibition at 10 µM ([3]; mean of 2 runs, read-out: Percent inhibition of control ligand binding, PDE4D2, Mean): -17.1% | inhibition at 10 µM ([4]; 1st run, read-out: Percent inhibition of control ligand binding, M2, 1st run): 0.3% | inhibition at 10 µM ([4]; 2nd run, read-out: Percent inhibition of control ligand binding, M2, 2nd run): 2% | inhibition at 10 µM ([4]; mean of 2 runs, read-out: Percent inhibition of control ligand binding, M2, Mean): 1.2% | inhibition at 10 µM ([5]; 1st run, read-out: Percent inhibition of control ligand binding, δ (DOP), 1st run): -7.8% | inhibition at 10 µM ([5]; 2nd run, read-out: Percent inhibition of control ligand binding, δ (DOP), 2nd run): 0.4% | inhibition at 10 µM ([5]; mean of 2 runs, read-out: Percent inhibition of control ligand binding, δ (DOP), Mean): -3.7% | inhibition at 10 µM (AR (androgen receptor); 1st run, read-out: Percent inhibition of control ligand binding, AR, 1st run): -5.6% | inhibition at 10 µM (AR (androgen receptor); 2nd run, read-out: Percent inhibition of control ligand binding, AR, 2nd run): -3.7% | inhibition at 10 µM (AR (androgen receptor); mean of 2 runs, read-out: Percent inhibition of control ligand binding, AR, Mean): -4.7% | inhibition at 10 µM ([6]; 1st run, read-out: Percent inhibition of control ligand binding, 5-HT2B, 1st run): -19.6% | inhibition at 10 µM ([6]; 2nd run, read-out: Percent inhibition of control ligand binding, 5-HT2B, 2nd run): -6.7% | inhibition at 10 µM ([6]; mean of 2 runs, read-out: Percent inhibition of control ligand binding, 5-HT2B, Mean): -13.1% | Serious AEs or deaths related to JNJ-77242113 (healthy participants; all cohorts): No serious AEs or deaths | Severity of adverse events (healthy participants; all cohorts): mild or moderate | Headache, participants, Part 2 (healthy participants; healthy participants, multiple ascending dose): 13.6% | Frequency of treatment-related AEs, Part 2 (healthy participants; healthy participants, multiple ascending dose, JNJ-77242113 groups): 46% | Headache, participants, Part 1 (healthy participants; healthy participants, single ascending dose): 10.3% | Frequency of treatment-related AEs, Part 1 (healthy participants; healthy participants, single ascending dose, JNJ-77242113 groups): 31% | inhibition at 10 µM ([7]; 1st run, read-out: Percent inhibition of control ligand binding, M3, 1st run): -10.5% | inhibition at 10 µM ([7]; 2nd run, read-out: Percent inhibition of control ligand binding, M3, 2nd run): -5.2% | inhibition at 10 µM ([7]; mean of 2 runs, read-out: Percent inhibition of control ligand binding, M3, Mean): -7.8% | inhibition at 10 µM ([8]; 1st run, read-out: Percent inhibition of control ligand binding, Lck kinase, 1st run): 8.6% | inhibition at 10 µM ([8]; 2nd run, read-out: Percent inhibition of control ligand binding, Lck kinase, 2nd run): -2.3% | inhibition at 10 µM ([8]; mean of 2 runs, read-out: Percent inhibition of control ligand binding, Lck kinase, Mean): 3.1%
